Assay results published in paper PMC5601235, “In vivo characterisation of a therapeutically relevant self‐assembling ^18F‐labelled β‐sheet forming peptide and its hydrogel using positron emission tomography” (Journal of Labelled Compounds & Radiopharmaceuticals, 2017).
Like-named read-outs stand apart in the source and are kept apart here. Where a SMILES comes first, the peptide text is derived from it. The star is where a group is joined. X1 = O=C(CO/N=C/c1cccnc1F)*

Key:
[1] = [^18F]FPCA‐F9 preclinical metabolite analysis (SE‐HPLC of plasma, kidney, liver, urine); format: in vivo, C3H mice
Description: […] Plasma was extracted from whole blood samples using a Thermo ALC multispeed refrigerated centrifuge PK121R (8720 g, 4°C for 3 minutes). Kidney and liver samples were homogenised and centrifuged (8720 g, 4°C for 3 minutes), and the supernatant was removed for HPLC analysis. Urine samples were directly injected onto HPLC without sample preparation using a GE Superdex peptide 10/300 GL (GE Healthcare, UK) eluted with PBS (1 mL/min, 220 nm).

[2] = Preclinical PET biodistribution of [^18F]FPCA‐F9 solution after tail‐vein injection; format: in vivo, C3H mice; conditions: C3H, mouse, iv, 13 MBq, total radioactivity, i.v. tail vein; for SUV at 1 h: 1 hour postinjection; for SUV at 20 min: 20 minutes postinjection
Description: C3H mice were anaesthetised using isoflurane induction 4% and maintained 1.5% in 70% N2O and 30% O2 mixture. [^18F]FPCA‐F9 solution was injected in the tail vein (13 MBq, n = 4) of healthy mice or [^18F]FPCA‐F9 hydrogel was injected subcutaneously into the right flank of different healthy mice (2‐5 MBq, n = 3). The acquisition protocol parameters consisted of a preliminary CT scan to determine attenuation correction factors followed by a 1‐ and 4‐hour PET acquisition time for [^18F]FPCA‐F9 solution and hydrogel, respectively. Major excretory organs, including liver, kidney and bladder as well as bone and hydrogel region (in [^18F]FPCA‐F9 hydrogel scans only), were delineated on CT and uptake was quantified as SUV.

- Plasma stability (in words) ([1]; in vivo, mouse plasma, metabolite analysis by SE‐HPLC): high plasma stability
- Radioactivity in second peak at ~8 minutes (larger species, aggregation or protein interaction) ([1]; liver and kidney samples, SE‐HPLC): ~ 5%
- Parent ([^18F]FPCA‐F9) fraction, kidney ([1]; mouse kidney homogenate supernatant after i.v. injection of monomer, after 60 minutes, SE‐HPLC radio‐detection, mean ± SD, n = 4): 95% ± 1%
- Parent ([^18F]FPCA‐F9) fraction, liver ([1]; mouse liver homogenate supernatant after i.v. injection of monomer, after 60 minutes, SE‐HPLC radio‐detection (Superdex peptide 10/300 GL, PBS), mean ± SD, n = 4): 94% ± 0%
- Parent ([^18F]FPCA‐F9) fraction, plasma ([1]; mouse plasma after i.v. injection of monomer, after 60 minutes, SE‐HPLC radio‐detection, mean, n = 4): 100%
- Parent ([^18F]FPCA‐F9) fraction, urine ([1]; mouse urine after i.v. injection of monomer, after 60 minutes, SE‐HPLC radio‐detection, mean ± SD, n = 4): 95% ± 1%
- Radioactivity in peak at ~12 minutes (larger species) ([1]; urine samples, SE‐HPLC): 5%
- SUV at 1 h ([2]; bladder, n = 4, read-out: Bladder uptake): 47.4 ± 7.2 SUV
- SUV at 20 min ([2]; bladder, begins to plateau, n = 4, mean ± SD, read-out: Bladder uptake): 53.4 ± 16.6 SUV
- SUV at 1 h ([2]; bone, n = 4, read-out: Bone accumulation): 7.8 ± 2.5 SUV
- SUV ([2]; kidney, within 5 minutes postinjection, n = 4, read-out: Kidney uptake): 5.9 ± 1.9 SUV
- SUV at 5 min ([2]; liver, 5 minutes postinjection, n = 4, read-out: Liver uptake): 1.4 ± 0.1 SUV
- SUV at 20 min ([2]; liver, n = 4, read-out: Liver uptake): 0.7 ± 0.1 SUV
Compound: NCCCC[C@H](NC(=O)[C@H](CCCCN)NC(=O)[C@H](Cc1ccccc1)NC(=O)[C@H](CCC(=O)O)NC(=O)[C@H](Cc1ccccc1)NC(=O)[C@H](CCCCN)NC(=O)[C@H](Cc1ccccc1)NC(=O)[C@H](CCC(=O)O)NC(=O)[C@H](Cc1ccccc1)NC(=O)CO/N=C/c1cccnc1F)C(=O)O [[^18F]FPCA‐F9] (X1-FEFKFEFKK-OH)
- Metabolites of [^18F]FPCA‐F9 in liver, kidney, urine and plasma samples (in words) ([1]; SE‐HPLC, parent peak at ~18 minutes): none of the samples analysed showed any metabolite
